In article PMC9320964, “Improving the Therapeutic Index of Smp24, a Venom-Derived Antimicrobial Peptide: Increased Activity against Gram-Negative Bacteria” (International Journal of Molecular Sciences, 2022):
Converted amounts (≈) assume the structure as drawn. Marks after values point to notes of the source that are not given here. Residues, ends and D or L forms follow the SMILES beside them. No end group written: not given here.

Key:
Type in all cases: cell-based
HEK293 cells = experiment: LDH cytotoxicity assay; details: LDH release, human kidney HEK293 cells, 0–512 µg/mL, 24 h, 37 °C, triplicate on 2 separate occasions
Description: (§1) An LDH assay (Fisher, Loughborough, UK) was used to determine the cytotoxic potential of the peptides against liver (HepG2) and kidney (HEK293) cells. Cells were grown in accordance with the manufacturer’s protocols. Cells were grown in DMEM containing 1 g/L D-glucose, 10% foetal bovine serum and 1% penicillin-streptomycin. Cells were grown to 80% confluence (37 °C, 5% CO2), washed twice with PBS, trypsinised, re-suspended and seeded at a density of […] in a 96-well plate. Cells were incubated for 24 h, and peptides or lipopeptide antibiotics (0–512 µg/mL) were added and incubated at 37 °C, 5% CO2 for 24 h. LDH release was determined via the manufacturer’s methods. All assays were performed in triplicate on 2 separate occasions. Triton X-100 (10%) was used as a positive control and deionised water as a negative control. Absorbance was read at 490 nm and 680 nm on a plate reader (CLARIOstar). LD50 values were calculated by plotting a dose–response curve and determining the dosage that would cause 50% cell death.

HepG2 cells = experiment: LDH cytotoxicity assay; details: LDH release, human liver HepG2 cells, 0–512 µg/mL, 24 h, 37 °C, triplicate on 2 separate occasions
Description: as §1

[1] = test system: Pseudomonas aeruginosa H085180216; experiment: MIC by broth microdilution; details: Muller Hinton broth, turbidity A600 nm
Description: (§2) The bacterial isolates used in this study (Escherichia coli JM109, Staphylococcus aureus SH1000 and Pseudomonas aeruginosa H085180216) were obtained from the culture collection held at Sheffield Hallam University.
(§3) All antimicrobial assays were performed by a broth microdilution method in Muller Hinton (MH) broth using a CLARIOstar plate reader (BMG Labtech, Offenburg, Germany) to determine the minimum inhibitory concentration (MIC). The MIC was defined as the lowest concentration of antimicrobial peptide at which growth was inhibited when viewed as turbidity (A600 nm) against a negative broth control. To determine the minimum bactericidal concentration (MBC), 5 µL aliquots were taken from the wells of the MIC plate and spot-plated onto MH agar in triplicate. The plates were incubated for 18–24 h at 37 °C.

[2] = test system: Staphylococcus aureus SH1000; experiment: MIC by broth microdilution; details: Muller Hinton broth, turbidity A600 nm
Description: as §2, §3

Escherichia coli JM109 [3] = experiment: MIC by broth microdilution; details: Muller Hinton broth, turbidity A600 nm
Description: as §2, §3

sheep erythrocytes = experiment: Haemolysis assay; details: peptides 0–512 µg/mL, triplicate, 10% Triton X-100 positive control
Description: Haemolytic activity was determined on sheep erythrocytes as described by Corzo, 2001 [23]. All samples were tested in triplicate and results given as HC50 values. Peptides were examined in the range of 0–512 µg/mL. 10% Triton X-100 was used as a positive control and deionised water with PBS as a negative control.

[4] = test system: Pseudomonas aeruginosa H085180216; experiment: MBC by spot-plating from MIC plate; details: 5 µL aliquots of MIC plate spot-plated onto MH agar in triplicate, 18–24 h at 37 °C
Description: as §2, §3

[5] = test system: Staphylococcus aureus SH1000; experiment: MBC by spot-plating from MIC plate; details: 5 µL aliquots of MIC plate spot-plated onto MH agar in triplicate, 18–24 h at 37 °C
Description: as §2, §3

Escherichia coli JM109 [6] = experiment: MBC by spot-plating from MIC plate; details: 5 µL aliquots of MIC plate spot-plated onto MH agar in triplicate, 18–24 h at 37 °C
Description: as §2, §3

| Compound | LD50 HEK293 (HEK293 cells) | LD50 HepG2 (HepG2 cells) | MIC P. aeruginosa [1] | MIC S. aureus [2] | MIC E. coli (Escherichia coli JM109 [3]) | HC50 (sheep erythrocytes) | HC50 (sheep erythrocytes; listed as daptomycin) | MBC P. aeruginosa [4] | MBC S. aureus [5] | MBC E. coli (Escherichia coli JM109 [6]) | HC50 (sheep erythrocytes; listed as polymyxin B) | HC50 (sheep erythrocytes; listed as W2A) | HC50 (sheep erythrocytes; listed as F4A) | HC50 (sheep erythrocytes; listed as K7F) |
| --- | --- | --- | --- | --- | --- | --- | --- | --- | --- | --- | --- | --- | --- | --- |
| CCCCCCCCCC(=O)N[C@@H](Cc1c[nH]c2ccccc12)C(=O)N[C@H](CC(N)=O)C(=O)N[C@@H](CC(=O)O)C(=O)N[C@@H]1C(=O)NCC(=O)N[C@@H](CCCN)C(=O)N[C@@H](CC(=O)O)C(=O)N[C@H](C)C(=O)N[C@@H](CC(=O)O)C(=O)NCC(=O)N[C@H](CO)C(=O)N[C@@H]([C@H](C)CC(=O)O)C(=O)N[C@@H](CC(=O)c2ccccc2N)C(=O)O[C@@H]1C [Daptomycin] | >512 µg/mL | >512 µg/mL | >512 µg/mL | 4 µg/mL (≈ 2.47 µM) | >512 µg/mL | >512 µg/mL | ≥ 512 µg/mL | >512 µg/mL | 8 µg/mL (≈ 4.94 µM) | >512 µg/mL |  |  |  |  |
| CC[C@H](C)CCCCC(=O)N[C@@H](CCN)C(=O)N[C@H](C(=O)N[C@@H](CCN)C(=O)N[C@H]1CCNC(=O)[C@H]([C@@H](C)O)NC(=O)[C@H](CCN)NC(=O)[C@H](CCN)NC(=O)[C@H](CC(C)C)NC(=O)[C@@H](Cc2ccccc2)NC(=O)[C@H](CCN)NC1=O)[C@@H](C)O [Polymyxin B] (HELM PEPTIDE1{[CC[C@H](C)CCCCC(=O)[*:2]].[Dab].T.[Dab].[Dab].[Dab].[dF].L.[Dab].[Dab].T}$PEPTIDE1,PEPTIDE1,5:R3-11:R2$$$V2.0; N-terminus assumed; bridges inferred) | 351 µg/mL | >512 µg/mL | 2 µg/mL (≈ 1.66 µM) | 32 µg/mL (≈ 26.6 µM) | 2 µg/mL (≈ 1.66 µM) | >512 µg/mL |  | 8 µg/mL (≈ 6.65 µM) | 64 µg/mL (≈ 53.2 µM) | 4 µg/mL (≈ 3.32 µM) | ≥ 512 µg/mL |  |  |  |
| IASFLIKAATKLLPSLFGGGKKDS [Smp24 W2A] |  |  |  |  |  |  |  |  |  |  |  | > 512 µg/mL |  |  |
| IWSALIKAATKLLPSLFGGGKKDS [Smp24 F4A] |  |  |  |  |  |  |  |  |  |  |  |  | 423 µg/mL |  |
| IWSFLIFAATKLLPSLFGGGKKDS [Smp24 K7F] |  |  |  |  |  |  |  |  |  |  |  |  |  | 442 µg/mL |
| IWSFLIKAATKLLPSLFGGGKKFS [Smp24 D23F] | 38 µg/mL | >512 * μg/mL | 64 µg/mL | 32 µg/mL | 32 µg/mL | 33 * μg/mL |  | 64 µg/mL | 32 µg/mL | 32 µg/mL |  |  |  |  |
